System: β-catenin-TCF-mediated reporter transcription activity in Colo 205 cells
Assay: Colo 205 reporter assay (TCF/LEF promoter-driven firefly luciferase)
Type: cell-based
Settings: Homo sapiens; Colo 205 TCF/LEF luciferase reporter, 5 hours after compound addition, 384 well; read-out: Colo205 IC50
Source text: The compounds of the invention described herein were screened using the assay procedure for β-catenin-TCF-mediated reporter transcription activity described below.
Reporter cell lines were generated by stably transfecting cells of cancer cell lines (e.g., colon cancer) with a plasmid reporter construct (From SABiosciences, a QIAGEN company) that includes TCF/LEF promoter driving expression of the firefly luciferase gene. TCF/LEF reporter constructs were made in which TCF/LEF promoter, a promoter with optimal number of TCF/LEF binding sites designed by SABiosciences, was linked upstream of the firefly luciferase gene. This construct could also include a puromycin resistance gene as a selectable marker. This construct could also be used to stably transfect Colo 205 cells, a colon cancer cell line having a mutated APC gene that causes a constitutively active β-catenin. A control cell line was generated using another plasmid construct containing the luciferase gene under the control of a CMV basal promoter which is not activated by β-catenin.
Colo 205 Cultured cells with a stably transfected reporter construct were plated at approximately 10,000 cells per well into 384 well multi-well plates for twenty four hours. The testing compounds were then added to the wells in 2-fold serial dilutions using a twenty micromolar top concentration. A series of control wells for each cell type received only compound solvent. Five hours after the addition of compound, reporter activity for luciferase was assayed, by addition of the SteadyGlo luminescence reagent (Promega). The reporter luminescence activity was measured using Pherastar plate reader (BMG Labtech). Readings were normalized to DMSO only treated cells, and normalized activities were then used in the IC50 calculations. The Colo 205 reporter assay data are summarized in Table 3: A<0.3 μM; 0.3 μM≤B<1.0 μM; 1.0 μM≤C<5.0 μM; D≥5.0 μM.

Row | Compound | IC50 [µM]
1 | COC(=O)c1ccc(OC)c(C2CCCCCN2c2cc(C)nc(N)n2)c1 (racemic) [I-111, (+/−)-Methyl 3-(1-(2-amino-6-methylpyrimidin-4-yl)azepan-2-yl)-4-methoxybenzoate] | 0.3 to 1
2 | Cc1cc(N2CCCOCC2c2ccc(S(C)(=O)=O)cc2Cl)nc(N)n1 (racemic) [I-66, (+/−)-4-(3-(2-chloro-4-(methylsulfonyl)phenyl)-1,4-oxazepan-4-yl)-6-methylpyrimidin-2-amine] | 1 to 5
3 | Cc1cc(N2CCCOC[C@H]2c2cc(C(O)C(F)(F)F)ccc2Cl)nc(N)n1 (single isomer, unassigned) [I-146] | 0.3 to 1
4 | COc1ccc(OC)c(C2COCCCN2c2cc(C)nc(N)n2)c1 (racemic) [I-93, (+/−)-4-[3-(2,5-dimethoxyphenyl)-1,4-oxazepan-4-yl]-6-methyl-pyrimidin-2-amine] | 0.3 to 1
5 | Cc1cc(N2CCCOCC2c2cc(NC(=O)C(F)(F)F)ccc2Cl)nc(N)n1 (racemic) [I-159, (+/−)-N-[3-[4-(2-amino-6-methyl-pyrimidin-4-yl)-1,4-oxazepan-3-yl]-4-chloro-phenyl]-2,2,2-trifluoro-acetamide] | < 0.3
6 | Cc1cc(N2CCCOC[C@@H]2c2ccccc2Cl)nc(N)n1 (single isomer, unassigned) [I-31] | < 0.3
7 | Cc1cc(N2CCCOC[C@@H]2c2ccc(C#N)cc2Cl)nc(N)n1 (single isomer, unassigned) [I-97] | 0.3 to 1
8 | COc1cc(S(C)(=O)=O)ccc1C1CCCCCN1c1cc(C)nc(N)n1 (racemic) [I-88, (+/−)-4-(2-(2-methoxy-4-(methylsulfonyl)phenyl)azepan-1-yl)-6-methylpyrimidin-2-amine] | 0.3 to 1
9 | CNC(=O)c1ccc(Cl)c(C2COCCCN2c2cc(C)nc(N)n2)c1 (racemic) [I-129, (+/−)-3-(4-(2-amino-6-methylpyrimidin-4-yl)-1,4-oxazepan-3-yl)-4-chloro-N-methylbenzamide] | 0.3 to 1
10 | COc1ccc(O)cc1C1CCCCCN1c1cc(C)nc(N)n1 (stereo not drawn) [I-107, 3-[1-(2-amino-6-methyl-pyrimidin-4-yl)azepan-2-yl]-4-methoxy-phenol] | < 0.3
11 | Cc1cc(N2CCCOCC2c2cc([N+](=O)[O-])ccc2Cl)nc(N)n1 (stereo not drawn) [I-72, 4-(3-(2-chloro-5-nitrophenyl)-1,4-oxazepan-4-yl)-6-methylpyrimidin-2-amine] | 0.3 to 1
12 | Cc1cc(N2CCCCC[C@@H]2c2cc(OC(C)C)ccc2Cl)nc(N)n1 (single isomer, unassigned) [I-108] | < 0.3
13 | Cc1cc(N2CCCOCC2c2ccc(F)cc2Cl)nc(N)n1 (racemic) [I-63, (+/−)-4-[3-(2-chloro-4-fluoro-phenyl)-1,4-oxazepan-4-yl]-6-methyl-pyrimidin-2-amine] | 0.3 to 1
14 | Cc1cc(N2CCCOCC2c2cc([S+](C)[O-])ccc2Cl)nc(N)n1 (racemic) [I-110, (+/−)-4-(3-(2-chloro-5-(methylsulfinyl)phenyl)-1,4-oxazepan-4-yl)-6-methylpyrimidin-2-amine] | 0.3 to 1
15 | COc1ccc(Cl)cc1[C@H]1COCCCN1c1cc(C)nc(N)n1 [I-132, (S)-4-(3-(5-chloro-2-methoxyphenyl)-1,4-oxazepan-4-yl)-6-methylpyrimidin-2-amine] | 0.3 to 1
16 | COc1cc(F)c(F)cc1C1COCCCN1c1cc(C)nc(N)n1 (stereo not drawn) [I-286] | 0.3 to 1
17 | Cc1cc(N2CCC(C)OCC2c2ccccc2Cl)nc(N)n1 (stereo not drawn) [I-301] | < 0.3
18 | Cc1cc(N2CCCOCC2c2ccc(NS(C)(=O)=O)cc2Cl)nc(N)n1 (racemic) [I-139, (+/−)-N-[4-[4-(2-amino-6-methyl-pyrimidin-4-yl)-1,4-oxazepan-3-yl]-3-chloro-phenyl]methanesulfonamide] | 0.3 to 1
19 | COc1ccc(Cl)c([C@H]2CCCCCN2c2cc(C)nc(N)n2)c1 (single isomer, unassigned) [I-135] | 0.3 to 1
20 | Cc1cc(N2CCCOCC2c2ccc(C(=O)N3CCCC3)cc2Cl)nc(N)n1 (racemic) [I-151, (+/−)-(4-(4-(2-amino-6-methylpyrimidin-4-yl)-1,4-oxazepan-3-yl)-3-chlorophenyl)(pyrrolidin-1-yl)methanone] | 0.3 to 1
21 | Cc1cc(N2CCCOC[C@@H]2c2ccc(C(=O)N(C)C)cc2Cl)nc(N)n1 (single isomer, unassigned) [I-144] | 0.3 to 1

System: XBP1(u)-luciferase splicing reporter in HepG2 hepatoma cells
Assay: HepG2 XBP1 reporter assay (XBP1(u)-Luc)
Type: cell-based
Settings: 6 hours after compound addition, Table 4
Source text: HepG2 XBP1 Reporter Assay
HepG2 hepatoma cells were transduced with a retrovirus encoding the cDNA for unspliced (u) XBP1, which contains a non-processed intron, fused to the cDNA for firefly luciferase. Upon induction of ER stress, the non-processed intron of XBP1(u) is spliced out by active IRE1alpha endonuclease. The resulting spliced (s) XBP1 is now in frame with luciferase which causes the production of active luciferase protein, resulting in bioluminescence
HepG2 XBP1(u)-Luc cells were plated […] Cultured cells with a stably transfected reporter construct were plated at approximately 30,000 cells per well into 96 well multi-well plates for twenty four hours. The testing compounds were then added to the wells in 3-fold serial dilutions using a twenty seven micromolar top concentration. A series of control wells for each cell type received only compound solvent. Six hours after the addition of compound, reporter activity for luciferase was assayed, by addition of the SteadyGlo luminescence reagent (Promega). The reporter luminescence activity was measured using Pherastar plate reader (BMG Labtech). Readings was normalized to DMSO only treated cells, and normalized activities were then used in the IC50 calculations. The HepG2 XBP1 reporter assay data are summarized in Tables 3-5: A<0.6 μM; 0.6 μM≤B<2.0 μM; 2.0 μM≤C<5.0 μM; D≥5.0 μM.

Row | Compound | IC50 [µM]
22 | COc1cc(Cl)c([C@H]2COCCCN2c2cc(C)nc(N)n2)cc1O [C-95] | < 0.6

Same assay, conditions: Homo sapiens, 6 h, six hours after addition of compound

Row | Compound | IC50 [µM]
23 | Cc1cc(N2CCCOC[C@@H]2c2cc3c(cc2Cl)OCC2(CC2)CO3)nc(N)n1 [D-16] | 0.6 to 2
24 | Cc1cc(N2CCCOCC2c2ccc(C3CCN(C4COC4)CC3)cc2Cl)nc(N)n1 [D-70] | 2 to 5
25 | Cc1cc(N2CCCOC[C@H]2c2cc(O)c(C(=O)NC3CC3)cc2Cl)nc(N)n1 [D-186] | ≥ 5
26 | Cc1cc(N2CCCOC[C@@H]2c2ccc(NC(=O)C3(F)CCOC3)cc2Cl)nc(N)n1 (stereo partly drawn) [D-62] | 2 to 5
27 | Cc1cc(N2CCCOC[C@@H]2c2ccc(NCC3CCOC3)cc2Cl)nc(N)n1 (stereo partly drawn) [D-83] | < 0.6
28 | CCc1ccccc1[C@H]1COCCCN1c1cc(C)nc(N)n1 [D-106] | < 0.6
29 | Cc1cc(N2CCCOC[C@@H]2c2cc3c(cc2Cl)NC[C@@](C)(C(=O)N(C)C)O3)nc(N)n1 [D-132] | < 0.6
30 | Cc1cc(N2CCCOC[C@@H]2c2ccc(N3CCN(C(=O)OC(C)(C)C)CC3)cc2Cl)nc(N)n1 [D-82] | 0.6 to 2
31 | Cc1cc(N2CCCOCC2c2ccc(C(C)(C)S(C)(=O)=O)cc2Cl)nc(N)n1 [D-136] | < 0.6
32 | Cc1cc(N2CCCOC[C@@H]2c2ccc(CS(C)(=O)=O)nc2OC(F)F)nc(N)n1 [D-93] | < 0.6
33 | Cc1cc(N2CCCOC[C@@H]2c2cc(CN)c(C)cc2Cl)nc(N)n1 [D-75] | < 0.6
34 | Cc1cc(N2CCCOC[C@@H]2c2ccc([C@H]3CCCN3)cc2Cl)nc(N)n1 [D-90] | < 0.6
35 | Cc1cc(N2CCCOCC2c2cc3c(cc2Cl)NC[C@@](C)(C(=O)NC(C)C)O3)nc(N)n1 (stereo partly drawn) [D-124] | < 0.6
36 | Cc1cc(N2CCCOC[C@H]2c2cc(CN)c(C)cc2Cl)nc(N)n1 [D-164] | ≥ 5

Same assay, conditions: Homo sapiens, 6 hours after compound addition, Table 4

Row | Compound | IC50 [µM]
37 | CCOC(=O)[C@H](C)Oc1cc(Cl)c([C@@H]2COCCCN2c2cc(C)nc(N)n2)cc1OC [C-149] | 2 to 5
38 | Cc1cc(N2CCCOCC2c2cc3c(cc2Cl)OCC2(CC2)CO3)nc(N)n1 (stereo not drawn) [C-90] | < 0.6
39 | COc1cc(C2COCCCN2c2cc(C)nc(N)n2)c(Cl)cc1OCC(N)=O (stereo not drawn) [C-97] | 0.6 to 2
40 | Cc1cc(N2CCCOCC2c2cc(CS(C)(=O)=O)ccc2Cl)nc(N)n1 (stereo in doubt) [C-52, 4-[(R)-3-(2-Chloro-5-methanesulfonylmethyl-phenyl)-[1,4]oxazepan-4-yl]-6-methyl-pyrimidin-2-ylamine] | 0.6 to 2
41 | Cc1cc(N2CCCOC[C@@H]2c2ccc(N3CCC(C)(O)CC3)c(F)c2Cl)nc(N)n1 [C-126] | 0.6 to 2
42 | C=CCOc1cc(Cl)c(C2COCCCN2c2cc(C)nc(N)n2)cc1OC (stereo not drawn) [C-45] | 0.6 to 2
43 | CSCOc1ccc([C@@H]2COCCCN2c2cc(C)nc(N)n2)c(Cl)c1 [C-122, 4-[(R)-3-(2-Chloro-4-methylsulfanylmethoxy-phenyl)-[1,4]oxazepan-4-yl]-6-methyl-pyrimidin-2-ylamine] | < 0.6
44 | Cc1cc(N2CCCOCC2c2ccc(CS(C)(=O)=O)cc2OC(F)F)nc(N)n1 (stereo not drawn) [C-75] | < 0.6
45 | Cc1cc(N2CCCOC[C@H]2c2cc3c(cc2Cl)OCC(=O)N3)nc(N)n1 [C-68] | < 0.6
46 | Cc1cc(N2CCCOCC2c2cc3c(cc2Cl)NCCC3)nc(N)n1 (stereo not drawn) [C-43] | < 0.6
47 | Cc1cc(N2CCCOCC2c2cc(Cl)c(F)cc2Cl)nc(N)n1 (stereo not drawn) [C-100] | 2 to 5
48 | Cc1cc(N)nc(N2CCCOCC2c2cc3c(cc2Cl)CCN3C)c1 (stereo not drawn) [C-54] | < 0.6
49 | Cc1cc(N2CCCOCC2c2ccc(OCC(N)=O)cc2Cl)nc(N)n1 (stereo not drawn) [C-53, 2-{4-[4-(2-Amino-6-methyl-pyrimidin-4-yl)-[1,4]oxazepan-3-yl]-3-chloro-phenoxy}-acetamide] | < 0.6
50 | COC(=O)COc1cc(Cl)c(C2COCCCN2c2cc(C)nc(N)n2)cc1OC (stereo not drawn) [C-44] | 0.6 to 2
51 | CCOc1cc(Cl)c([C@@H]2COCCCN2c2cc(C)nc(N)n2)cc1OC [C-86] | ≥ 5

Source: patent US11440907B1 (Merck Patent GmbH, priority 2018, dated 2022)
